# Reference: US20110287934A1, “HERBICIDAL COMPOSITION FOR TOLERANT OR RESISTANT RICE CROPS” (priority 2010, published 2011)
# Assays:
# Format in all cases: in vivo
# rice (GA-tolerant) = experiment: Greenhouse trial, crop plant compatibility in rice (GA-tolerant)
# Method: (§1) The trials were carried out under greenhouse conditions (test pots, diameter 8 cm, spray application using 300 l of water/hectare, 2 repetitions, 6 to 8 plants per pot, permanently flooded).
# (§2) Scoring was by visual comparison of the treated with the untreated controls (0-100% scale, 13-15 days after the application) (see details in the respective tables).
# Amaranthus retroflexus = experiment: Greenhouse trial, efficacy with respect to Amaranthus retroflexus; conditions: post-emergence, 2-3-leaf stage, scoring 13 days after treatment
# Method: as §1
# (§3) Application was by post-emergence treatment, the species of the harmful plants and their stage of growth at the time of treatment are indicated in the individual results tables. The application rates of the herbicidally active compounds used on their own or in combinations are likewise listed in the individual results tables.
# as §2
# (§4) 4.2 Abbreviations Used in Tables 4 to 6 • application rate g/ai=application rate in grams of active compound per hectare • ai=active ingredient (of an active compound content of 100%) • GA=glufosinate-ammonium • GA-tolerant=rice which is tolerant to GA (GMO: LL-rice) • E^C=expected value according to Colby, (E^C=A+B−A×B/100) • =for ternary combinations: (A+B)+C−(A+B)×C/100 • E^A=expected value according to the addition method (E^A=A+B) • Δ=difference (%) between observed value—%—vs. expected value (%) (observed value minus expected value) examination: observed values for (A), (B) and (A)+(B) in scoring: observed value (%) greater >than E^C/E^A:->synergism (+Δ) • observed value (%) equal to =E^C/E^A->additive effect (+−0Δ) • observed value (%) smaller <than E^A/E^C->antagonism (−Δ)
# Cyperus esculentus = experiment: Greenhouse trial, efficacy with respect to Cyperus esculentus; conditions: post-emergence, 1-3-leaf stage, scoring 15 days after application
# Method: as §1, §3, §2, §4
# Leptochloa chinensis = experiment: Greenhouse trial, efficacy with respect to Leptochloa chinensis; conditions: post-emergence
# Method: as §1, §3, §2, §4
# [1] = 100 g of ai/ha, post-emergence, 1-3-leaf stage, scoring 15 days after application (Table 5)
# [2] = 50 g of ai/ha, post-emergence, 1-3-leaf stage, scoring 15 days after application (Table 5)
# [3] = Dinebra chinensis, 360 h, read-out: Herbicidal activity % Leptochloa chinensis
compound,measurement,setting,value
"CCOC(=O)c1cnn(C)c1S(=O)(=O)NC(=O)Nc1nc(OC)cc(OC)n1 [C59, pyrazosulfuron-ethyl]",Damage to crop plants (%) rice (GA-tolerant) (≦15-20% acceptable),"rice (GA-tolerant); 50 g of ai/ha, post-emergence, 2-3-leaf stage, scoring 13 days after treatment",10%
same,Herbicidal efficacy % Amaranthus retroflexus,Amaranthus retroflexus; 50 g of ai/ha,60%
"CC1(C)CON(Cc2ccccc2Cl)C1=O [C17, clomazone]",Herbicidal efficacy % Cyperus esculentus,Cyperus esculentus; 100 g of ai/ha,10%
same,Damage to crop plants (%) rice (GA-tolerant) (≦15-20% acceptable),rice (GA-tolerant); [1],0%
"CS(=O)(=O)c1ccc(C(=O)C2C(=O)CCCC2=O)c(Cl)c1COCC1CCCO1 (centres unmarked) [C64, tefuryltrione]",Herbicidal efficacy % Cyperus esculentus,Cyperus esculentus; 50 g of ai/ha,30%
same,Damage to crop plants (%) rice (GA-tolerant) (≦15-20% acceptable),rice (GA-tolerant); [2],0%
"Cc1nn(-c2cc(CC(Cl)C(=O)O)c(Cl)cc2F)c(=O)n1C(F)F (centres unmarked) [C13, carfentrazone]",Herbicidal efficacy % Cyperus esculentus,Cyperus esculentus; 4 g of ai/ha,0%
same,Damage to crop plants (%) rice (GA-tolerant) (≦15-20% acceptable),"rice (GA-tolerant); 4 g of ai/ha, post-emergence, 1-3-leaf stage, scoring 15 days after application (Table 5)",10%
"COC(=O)c1nc(-c2ccc(Cl)c(OC)c2F)cc(N)c1Cl [B1.1, methyl 4-amino-3-chloro-6-(4-chloro-2-fluoro-3-methoxyphenyl)pyridine-2-carboxylate]",Herbicidal efficacy % Cyperus esculentus,Cyperus esculentus; 20 g of ai/ha,60%
same,Damage to crop plants (%) rice (GA-tolerant) (≦15-20% acceptable),rice (GA-tolerant); in vivo,0%
same,Herbicidal efficacy % Amaranthus retroflexus,Amaranthus retroflexus; 20 g of ai/ha,90%
same,inhibition at 20 g/ha,Leptochloa chinensis; [3],45%
"O=C(O)COc1ccc(Cl)cc1Cl [C20, 2,4-D]",Herbicidal efficacy % Cyperus esculentus,Cyperus esculentus; 100 g of ai/ha,20%
same,Damage to crop plants (%) rice (GA-tolerant) (≦15-20% acceptable),rice (GA-tolerant); [1],0%
"CCN(C(=O)n1nnn(-c2ccccc2Cl)c1=O)C1CCCCC1 [C30, fentrazamide]",Herbicidal efficacy % Amaranthus retroflexus,Amaranthus retroflexus; 75 g of ai/ha,30%
"CCOc1ccccc1OS(=O)(=O)NC(=O)Nc1nc(OC)cc(OC)n1 [C24, ethoxysulfuron]",Damage to crop plants (%) rice (GA-tolerant) (≦15-20% acceptable),rice (GA-tolerant); in vivo,0%
same,Herbicidal efficacy % Amaranthus retroflexus,Amaranthus retroflexus; 10 g of ai/ha,40%
"COC(=O)c1ccccc1S(=O)(=O)NC(=O)Nc1nc(C)nc(OC)n1 [C43, metsulfuron-methyl]",Herbicidal efficacy % Cyperus esculentus,Cyperus esculentus; 3 g of ai/ha,0%
same,Damage to crop plants (%) rice (GA-tolerant) (≦15-20% acceptable),rice (GA-tolerant); in vivo,15%
"COc1nc(OC)nc(C(=O)c2cccc(F)c2N(C)S(=O)(=O)C(F)F)n1 [C72, AE 196 triafamone]",Herbicidal efficacy % Cyperus esculentus,Cyperus esculentus; 6 g of ai/ha,65%
same,Damage to crop plants (%) rice (GA-tolerant) (≦15-20% acceptable),"rice (GA-tolerant); 6 g of ai/ha, post-emergence, 1-3-leaf stage, scoring 15 days after application (Table 5)",0%
"CCC(CC)Nc1c([N+](=O)[O-])cc(C)c(C)c1[N+](=O)[O-] [C53, pendimethalin]",Damage to crop plants (%) rice (GA-tolerant) (≦15-20% acceptable),"rice (GA-tolerant); 200 g of ai/ha, post-emergence, 2-3-leaf stage, scoring 13 days after treatment",10%
same,Herbicidal efficacy % Amaranthus retroflexus,Amaranthus retroflexus; 200 g of ai/ha,50%
"CCOC(=O)[C@@H](C)Oc1ccc(Oc2nc3ccc(Cl)cc3o2)cc1 [C29, fenoxaprop-P-ethyl]",Damage to crop plants (%) rice (GA-tolerant) (≦15-20% acceptable),"rice (GA-tolerant); 10 g of ai/ha, post-emergence, 2-3-leaf stage, scoring 13 days after treatment",10%
same,Herbicidal efficacy % Amaranthus retroflexus,Amaranthus retroflexus; 10 g of ai/ha,10%
"C[C@@H](Oc1ccc(Oc2ccc(C#N)cc2F)cc1)C(=O)O [C19, cyhalofop]",Herbicidal efficacy % Cyperus esculentus,Cyperus esculentus; 50 g of ai/ha,10%
same,Damage to crop plants (%) rice (GA-tolerant) (≦15-20% acceptable),rice (GA-tolerant); [2],0%
oxadiargyl [C49],Herbicidal activity % Leptochloa chinensis,"Leptochloa chinensis; 25 g of ai/ha, 1-3-leaf stage, scoring 15 days after application",70%
"CCC(=O)Nc1ccc(Cl)c(Cl)c1 [C55, propanil]",Herbicidal efficacy % Cyperus esculentus,Cyperus esculentus; 500 g of ai/ha,10%
same,Damage to crop plants (%) rice (GA-tolerant) (≦15-20% acceptable),"rice (GA-tolerant); 500 g of ai/ha, post-emergence, 1-3-leaf stage, scoring 15 days after application (Table 5)",0%
"CP(=O)(O)CCC(N)C(=O)O (centres unmarked) [A1.1, glufosinate-ammonium]",Herbicidal efficacy % Cyperus esculentus,Cyperus esculentus; 100 g of ai/ha,25%
same,Damage to crop plants (%) rice (GA-tolerant) (≦15-20% acceptable),rice (GA-tolerant); [1],10%
same,Damage to crop plants (%) rice (GA-tolerant) (≦15-20% acceptable),"rice (GA-tolerant); 100 g of ai/ha, post-emergence, 1-3-leaf stage, scoring 15 days after application (Table 6)",10%
same,Damage to crop plants (%) rice (GA-tolerant) (≦15-20% acceptable),"rice (GA-tolerant); 100 g of ai/ha, post-emergence, 2-3-leaf stage, scoring 13 days after treatment",10%
same,Herbicidal efficacy % Amaranthus retroflexus,Amaranthus retroflexus; 100 g of ai/ha,55%
same,inhibition at 100 g/ha,Leptochloa chinensis; [3],10%
"CC(C)Oc1cc(-n2nc(C(C)(C)C)oc2=O)c(Cl)cc1Cl [C50, oxadiazon]",Herbicidal efficacy % Cyperus esculentus,Cyperus esculentus; 3 g of ai/ha,10%
same,Damage to crop plants (%) rice (GA-tolerant) (≦15-20% acceptable),rice (GA-tolerant); in vivo,0%
